What was measured:
[1] = system: electroshock-induced seizures; experiment: Mouse electroshock-induced seizure model; type: in vivo; conditions: mice; for Electroshock to Criteria: MED producing maximal protection (0% seizures); for Electroshock (minimal effective dose, MED): lowest dose with statistically significant protection vs vehicle
Protocol: This assay detects effects of compounds that produce generalized seizures and those that dampen seizure spread. Male, CD1 mice (Taconic Farms) were studied at weights of 21-32 g. Mice=10/dose) were used with Wahlquist Model H stimulator with 0.2 sec stimulation with corneal electrodes. […] Mice were euthanized immediately following the test. Tonic extension was used as the primary endpoint.
(§1) For the in vivo assays, minimal effective doses (MED) were calculated in mg/kg. MED was defined as the lowest dose administered that produced statistically significant protection compared to vehicle control in the anticonvulsant assays. The MED, or minimal toxic dose (MTD) for motor impairment, was the minimal dose required to produce statistically-significant impairment in motor performance. Doses tested are shown in the figures and tables and are generally dosed in ½ log increments. The protective index (PT) was calculated at the MTD/MED.

[2] = system: PTZ-induced clonus; experiment: Pentylenetetrazole (PTZ, 35 mg/kg s.c.)-induced clonic convulsions; type: in vivo; conditions: rats; for PTZ Clonus to Criteria 1: MED producing maximal protection (0% seizures); for PTZ Clonus Potency (MED): lowest dose with statistically significant protection; for PTZ Clonus Potency (MED) / protection against PTZ-induced clonus: PTZ 35 mg/kg s.c.
Protocol: After the inverted screen test, the rats were dosed with pentylenetetrazole (PTZ)(35 mg/kg, s.c.) in a volume of 1 ml/kg and placed in an observation cage (40.6×20.3×15.2 cm) with a floor containing […] of wood chip bedding material. PTZ dose was determined to be ˜EC97 for producing clonic convulsions.

[3] = system: PTZ seizure threshold; experiment: Pentylenetetrazole (PTZ, i.v.)-induced seizure threshold; type: in vivo, rats; conditions: for PTZ Threshold to Criteria: MED for producing ≥2× PTZ seizure threshold at baseline; for PTZ Threshold Poteny (MED): lowest dose with statistically significant effect, PTZ i.v.; for PTZ Threshold Poteny (MED) / effect on dose of PTZ required to induce convulsions: rats; for effect on dose of PTZ required to induce convulsions: PTZ i.v. infusion, pretreatment 30 min
Protocol: Male […] Sprague-Dawley rats (Indianapolis, Ind.) were randomly assigned to treatment groups and dosed with vehicle (vehicle=1% carboxymethyl cellulose) with diazepam (0.1, 0.3, or 1 mg/kg) or test compound (3, 10, 30, or 60 mg/kg) 30 minutes prior to testing. Rats were placed in a restrainer and a winged infusion needle was inserted into the lateral tail vein. Intravenous infusion with 10 mg/ml PTZ at a rate of 0.5 ml/min was initiated until a clonic convulsion occurred, and the time to clonic convulsion was recorded in sec or a maximum of 4 min was recorded. Following infusion, rats are euthanized. The dose of PTZ required to elicit a clonic convulsion was calculated using the infusion rate, concentration of PTZ, time to clonic convulsion, and animal weight.

[4] = system: seizures in amygdala kindled rats; experiment: Basolateral amygdala kindling; type: in vivo; conditions: for After-Discharge Duration to Criteria: MED for producing after-discharge duration ≤30 sec; for After-Discharge Threshold to Criteria: MED for producing after-discharge threshold ≥3; for Seizure Severity to Criteria: MED for producing seizure severity score ≤2; for After-Discharge Duration Potency (MED) / After-Discharge Threshold Potency (MED) / Seizure Severity Poteny (MED) / effect on adjusted after-discharge threshold (ADT) / effect on after-discharge duration (ADD) / effect on seizure severity score / kindling measures / Seizure free scores (seizure severity=0): amygdala kindled rats; for Seizure free scores (seizure severity=0): groups of 8
Protocol: Seizure kindling models evaluate effects of drugs on the sensitization of the nervous system to seizure induction. In this test, drugs were evaluated for their ability to impact seizure parameters in rats that were fully kindled by daily electrical stimulation of their amygdala. Valproic acid was used as a positive control. Experiments were conducted using the general procedures of Zwart et al. (J. Pharmacol. Exp. Ther., 2014, 351:124-133). A bipolar electrode for electrical stimulation and EEG recording was stereotaxically implanted into one hemisphere of the basolateral amygdala (AP −2.2, ML −4.8, DV −8.5 mm, relative to bregma) of male Wistar rats. After post-operative recovery, electrical kindling begins, where a subthreshold constant current (400 μA, 1 ms, monophasic square-wave pulses, 60 Hz for 1 sec) is given once a day Monday-Friday for about 4-6 weeks until a rat is fully kindled. A fully kindled rat has experienced 10 consecutive stage 5 seizures or 10 of its last 12 were stage 5 according to the Racine Scale.
Twelve fully kindled rats were assigned to this study, and eight rats were selected and randomized to initial compound treatment groups from baseline after discharge threshold (ADT), seizure severity score, and after discharge duration (ADD). […] On test day, rats were dosed 30 min prior to beginning stimulation. After the pre-treatment, rats were stimulated using an ascending staircase sequence beginning at 10 μA and increasing in log unit steps of 10, 16, 25, 40, 65, 100, 160, 250, and 400 μA. Animals were stimulated until they were assigned a Seizure Severity Score for a visually observably seizure or they reached the 400 μA threshold limit. ADD was determined following testing. ADT was the current that induced a seizure; measurements were scale-adjusted to capture the stimulation scale change required to observe a seizure from the previous baseline to the ADT scored on test day. […] The average scale adjusted ADT was approximately 0.63 μA in vehicle treated rats.
Racine score of behavioral response to stimulation: 0=no behavioral response; 1=immobility, staring and/or facial clonus; 2=head nodding, jaw clonus, and/or tongue protrusion; 3=unilateral forelimb clonus; 4=bilateral forelimb clonus and/or rearing; 5=bilateral forelimb clonus with rearing and loss of balance.
After-Discharge Duration (ADD) is the duration of the first after-discharge.
ADT, ADD, and severity scores were analyzed by ANOVA. Seizure severity data was also analyzed by the nonparametric Skillings-Mack test, a generalization of the Friedman test for one-way repeated measures designs. Posthoc tests when reported were either by Dunnett's method (seizure severity) or using Wilcoxon sign rank tests (ADT and ADD). Valproic acid, used as a positive control was not used in ANOVA calculations.

[5] = system: motor performance on an inverted screen; experiment: Rat inverted screen test (motor impairment); conditions: rats
Description: The motor effects of Diazepam and KRM-II-81 were studied on the inverted screen. The inverted screen test is used to measure whether or not a test compound induces muscle relaxation. When a test subject is placed on a wire screen which is then inverted, the reaction is to climb to the opposite side so they are no longer hanging upside down.
Male, Sprague Dawley rats (Harlan Sprague Dawley, Indianapolis, Ind.) were used and weighed 90-110 g when evaluated in experiments. […] Rats were placed onto the top of a wire screen, which was then inverted so that the rats were hanging upside down.
Male Sprague-Dawley rats (n=5) were dosed i.p. (vehicle=1% carboxymethyl cellulose) with diazepam (3, 10, or 30 mg/kg), KRM-II-81 (10, 30, or 60 mg/kg) or HZ-166 (30 mg/kg) 30 minutes prior to testing. Rats were placed onto the top of a wire screen, which was then inverted so that the rats were hanging upside down. […] Results were analyzed using ANOVA (Dunnett's test: *P<0.05).
as §1

[6] = system: immobility in forced-swim test; experiment: Forced-swim assay; type: in vivo, mice; conditions: male NIH Swiss mice, i.p., 30 min prior
Protocol: Male NIH Swiss mice (Envigo, Indianapolis, Ind.) were studied. Mice were placed in clear plastic cylinders (diameter: 10 cm; height: 25 cm) filled with 6 cm of water (22-25° C.) for six min. […] The duration of immobility during the last four min of the six min test period was scored. A mouse was recorded as immobile when floating motionless or making only those movements necessary to keep its head above water.

C#Cc1ccc2c(c1)C(c1ccccc1)=NCc1c(-c3cnco3)ncn1-2 [KRM-II-82, 5-(8-ethynyl-6-phenyl-4H-benzo[f]imidazo[1,5-a][1,4]diazepin-3-yl)oxazole]
Electroshock to Criteria [1]: 30 mg/kg
Electroshock (minimal effective dose, MED) [1]: 30 mg/kg
protection against electroshock-induced seizures [1]: fully prevented
PTZ Clonus to Criteria 1 [2]: 30 mg/kg
PTZ Clonus Potency (MED) [2]: 10 mg/kg
protection against PTZ-induced clonus [2]: dose-dependently suppressed
PTZ Threshold to Criteria [3]: 30 mg/kg
PTZ Threshold Poteny (MED) [3]: 10 mg/kg
effect on dose of PTZ required to induce convulsions [3]: increased the dose of PTZ required to induce convulsions
After-Discharge Duration to Criteria [4]: >30 mg/kg
After-Discharge Threshold to Criteria [4]: 30 mg/kg
Seizure Severity to Criteria [4]: >30 mg/kg
After-Discharge Duration Potency (MED) [4]: >30 mg/kg
After-Discharge Threshold Potency (MED) [4]: 10 mg/kg
Seizure Severity Poteny (MED) [4]: 10 mg/kg
effect on adjusted after-discharge threshold (ADT) [4]: significantly increased
effect on after-discharge duration (ADD) [4]: trend for a significant effect
effect on seizure severity score / kindling measures [4]: trend toward efficacy
Seizure free scores (seizure severity=0) [4]: 1/8
effect on motor performance ([5]; up to 30 mg/kg, inverted screen): without significant effect on motor performance
immobility in forced-swim assay [6]: significantly decreased immobility time

C#Cc1ccc2c(c1)C(c1ccccn1)=NCc1c(-c3cnco3)ncn1-2 [KRM-II-81, 5-(8-ethynyl-6-(pyridin-2-yl)-4H-benzo[f]imidazo[1,5-a][1,4]diazepin-3-yl)oxazole]
Electroshock to Criteria [1]: 30 mg/kg
Electroshock (minimal effective dose, MED) [1]: 10 mg/kg
protection against electroshock-induced seizures [1]: fully prevented
PTZ Clonus to Criteria 1 [2]: 30 mg/kg
PTZ Clonus Potency (MED) [2]: 30 mg/kg
protection against PTZ-induced clonus [2]: fully prevented
PTZ Threshold to Criteria [3]: 30 mg/kg
PTZ Threshold Poteny (MED) [3]: 10 mg/kg
dose of PTZ required to induce convulsions ([3]; pretreated with 10 mg/kg of KRM-II-81, vehicle baseline 35.1±1.2 mg/kg): 71 mg/kg
effect on dose of PTZ required to induce convulsions [3]: increased the dose of PTZ required to induce convulsions
After-Discharge Duration to Criteria [4]: 10 mg/kg
After-Discharge Threshold to Criteria [4]: 10 mg/kg
Seizure Severity to Criteria [4]: 10 mg/kg
After-Discharge Duration Potency (MED) [4]: 10 mg/kg
After-Discharge Threshold Potency (MED) [4]: 10 mg/kg
Seizure Severity Poteny (MED) [4]: 10 mg/kg
effect on adjusted after-discharge threshold (ADT) [4]: significantly increased
effect on after-discharge duration (ADD) [4]: significant decreases
effect on seizure severity score / kindling measures [4]: most efficacious and potent
Seizure free scores (seizure severity=0) [4]: 7/8
muscle relaxation on inverted screen (result in words) ([5]; i.p., 30 min prior, KRM-II-81 10-60 mg/kg, HZ-166 30 mg/kg): Neither HZ-166 nor KRM-II-81 induced significant muscle relaxation
dose at which signs of muscle relaxation began to appear ([5]; i.p., inverted screen): 60 mg/kg
immobility in forced-swim assay [6]: moderate, dose-dependent decrease in immobility

— patent US20200316087A1, “NOVEL COMBINATION THERAPY FOR ANXIETY DISORDERS, EPILEPSY, AND PAIN” (priority 2017, published 2020)
